Results reported in patent US8343512B2, “Treatment of allergic conditions using a composition containing synthetic adjuvant” (Infectious Disease Research Institute, priority 2006, dated 2013).

Experiments:
ID83 antigen = ID83 antigen with GLA-SE, GLA/CpG-SE or GLA/GDQ-SE in mice, intracellular cytokine staining; format: in vivo, Mice (C57BL/6); details: GLA/GDQ-SE or GLA/CpG-SE versus GLA-SE
[1] = system: Dendritic cells derived from purified blood CD14+ monocytes; assay: GLA stimulation of human dendritic cells, CD86 surface expression by flow cytometry; format: cell-based
From the text: Dendritic cells were derived from purified blood CD14+ monocytes following a published protocol. Various adjuvant concentrations of either synthetic GLA (Avanti Polar Lipids, Inc., Alabaster, Ala.; product number 699800) or the natural product MPL® (GSK Biologicals, Rixensart, Belgium) were achieved by diluting an aqueous adjuvant preparation in cell culture medium (RPMI containing 5% human serum). Prior to collection and analysis of the expression of activation markers, cells were maintained for 44 hours at 37° C. in a humidified atmosphere containing 5% CO2. Expression levels of the costimulatory molecule CD86 at the surface of DC were used as an indicator of cell activation and measured by flow cytometry on a LSRII instrument (BD Biosciences, San Jose, Calif.) using CD86-specific fluorochrome-labeled antibody (eBiosciences, San Diego, Calif.) according to the manufacturer's instructions.

Influenza = assay: Fluzone vaccine with GLA-AF or GLA-SE in mice, anti-Fluzone IgG ELISA and HAI; format: in vivo, Mice (Balb/c); details: GLA 20 μg in aqueous or stable oil formulation; compared to Fluzone alone
Protocol: Mice (three Balb/c animals per group) were immunized twice at three-week intervals with the Fluzone vaccine (Sanofi-Aventis, Swiftwater, Pa., at 1/25 (20 μl) and 1/250 (2 μl) of the human dosage, alone, or formulated in (i) an aqueous emulsion containing GLA (Avanti Polar Lipids, Inc., Alabaster, Ala.; product number 699800; 20 μg per animal for each immunization) according to the procedure used in Example 1 above (“GLA-AF”), or (ii) a stable emulsion containing GLA (Avanti Polar Lipids, Inc., Alabaster, Ala.; product number 699800; 20 μg per animal for each immunization) according to the procedure used in Example 3 above (“GLA-SE”). Sera were collected by bleeding animals one week after each immunization, and serum levels of total IgG antibodies specific for Fluzone were examined by ELISA according to published methods (Id.). Serum levels of virus neutralizing antibodies were also examined by Hemagglutination Inhibition Assay (HAI) according to published methods.

Human whole blood cells = assay: GLA stimulation of human blood cells, IL-1β ELISA; format: cell-based; details: 16 hours
Protocol: Human whole blood cells were cultured with various adjuvant concentrations of either synthetic GLA (Avanti Polar Lipids, Inc., Alabaster, Ala.; product number 699800) or the natural product MPL® (GSK Biologicals, Rixensart, Belgium), achieved by diluting an aqueous adjuvant preparation in cell culture medium (DMEM containing 10% fetal bovine serum). Blood cells were maintained for 16 hours at 37° C. in a humidified atmosphere containing 5% CO2, prior to collection of cell-free culture supernatants. Supernatant fluids were assayed for soluble human cytokine IL-1β using specific sandwich ELISA assay kit (eBiosciences, San Diego, Calif.) according to the manufacturer's instructions.

Leish-110f antigen = Leish-110f antigen with different amounts of GLA-SE in mice, IgG1/IgG2a ELISA; format: in vivo, Mice (Balb/c)
Protocol: Mice (three Balb/c animals per group) were immunized three times at two-week intervals with the Leish-110f antigen (10 μg per animal for each immunization) formulated in a stable emulsion containing different amounts of GLA (Avanti Polar Lipids, Inc., Alabaster, Ala.; product number 699800; 40, 20, 5, or 1 μg per animal for each immunization according to the procedure used in Example 3 above, GLA-SE). Sera were collected by bleeding animals one week after the first immunization, and serum levels of IgG1 and IgG2a antibodies specific for Leish-110f were examined by ELISA according to published methods (Id.).

USP Rabbit Pyrogen Test = details: in vivo
Protocol: GLA and MPL were evaluated for pyrogenicity/toxicity using the United States Pharmacopeial (USP) rabbit pyrogen test method. GLA was tested at the same doses and conditions commonly used for MPL.

ML0276 antigen = ML0276 antigen with CpG, Imiquimod, GLA-SE or mix in mice, IFN-γ CD4+ T cell ICS; format: in vivo, Mice (C57BL/6); details: adjuvant given with ML0276 antigen 10 μg; saline background 0.04%
Protocol: Mice (three C57BL/6 animals per group) were immunized three times at three-week intervals with the ML0276 antigen (10 μg per animal for each immunization) adjuvanted with aqueous formulations containing CpG (CpG1826, Coley Pharmaceutical, 25 μg per animal for each immunization), or Imiquimod (IMQ) (3M Pharma, 25 μg per animal for each immunization), or GLA (Avanti Polar Lipids, Inc., Alabaster, Ala.; product number 699800; 25 μg per animal for each immunization, according to the procedure used in Example 3 above, GLA-SE), a mix of the three, or saline as negative control. Three weeks after the last injection, mice were sacrificed and spleen collected to analyze CD4+ T cell-dependent IFN-γ cytokine responses to in vitro ML0276 antigen stimulation by ICS and Flow cytometry according to published methods. Expression of IFN-γ cytokine has been associated with protective TH1 responses against M. leprae infection.

CCNCc1nc2c(N)nc3ccccc3c2n1CC(C)(C)O [GDQ, Gardiquimod]
frequency of ID83 specific cytokine producing T cells on addition of a second TLR ligand to ID83+GLA-SE (ID83 antigen): further increased

CCCCCCCCCCCCCC(=O)O[C@H](CCCCCCCCCCC)CC(=O)O[C@@H]1[C@@H](NC(=O)C[C@@H](CCCCCCCCCCC)OC(=O)CCCCCCCCCCC)[C@H](OC[C@H]2O[C@H](O)[C@H](NC(=O)C[C@H](O)CCCCCCCCCCC)[C@@H](OC(=O)C[C@H](O)CCCCCCCCCCC)[C@@H]2O)O[C@H](CO)[C@H]1OP(=O)(O)O [GLA, glucopyranosyl lipid adjuvant]
active at concentrations lower compared to MPL for human dendritic cell maturation ([1]; CD86 expression): at least 10 fold | CD86 expression, GLA versus MPL ([1]; additional three donors, 1000 ng/ml to 1 ng/mL): lower doses of GLA achieved higher CD86 expression than MPL | Total IgG and neutralizing antibody titers in response to Fluzone vaccination (Influenza): enhanced | concentration equivalent in potency (IL-1β secretion) (Human whole blood cells): 92 nM | Leish-110f-specific IgG1 and IgG2a antibody titers (Leish-110f antigen; GLA 40, 20, 5, or 1 μg in GLA-SE, one week after the first immunization): GLA dose-dependent | predominant Leish-110f-specific antibody isotype (Leish-110f antigen; all concentrations of GLA tested): Predominance of TH1 associated IgG2a antibody | pyrogenicity/toxicity, USP<151> requirements (USP Rabbit Pyrogen Test): passed the USP<151> requirements for the absence of pyrogens

CC(C)Cn1cnc2c(N)nc3ccccc3c21 [IMQ, Imiquimod]
frequency of ML0276 specific IFN-γ+ CD4+ T cells (positive cells) (ML0276 antigen): 0.11%
